Test [1] has as its target Dual specificity mitogen-activated protein kinase kinase 2 (Homo sapiens) (UniProt P36507). Description: Selectivity interaction (LanthaScreen Eu Kinase Binding Assay) EUB0001632a MAP2K2. The conditions noted are these: at 10 µM. A general note: TR-FRET usually uses a lanthanide donor and a delayed reading to cut background.
The target in test [2] is Mitogen-activated protein kinase 9 (Homo sapiens, UniProt P45984). Description: Selectivity interaction (Kinase panel (Z-LYTE Assay)) EUB0001632a MAPK9. To be noted: at 10 µM.
For test [3], the target named is Tyrosine-protein kinase Yes (Homo sapiens) (UniProt P07947). In words: Selectivity interaction (ActivX KiNativ screen (ex vivo kinase selectivity in human PBMCs)) EUB0001619a YES1. Format: cell-based. To be noted: PBMC, at 1 µM.
Chain of Tyrosine-protein kinase Yes (Homo sapiens) (P07947 2-543 limits assumed): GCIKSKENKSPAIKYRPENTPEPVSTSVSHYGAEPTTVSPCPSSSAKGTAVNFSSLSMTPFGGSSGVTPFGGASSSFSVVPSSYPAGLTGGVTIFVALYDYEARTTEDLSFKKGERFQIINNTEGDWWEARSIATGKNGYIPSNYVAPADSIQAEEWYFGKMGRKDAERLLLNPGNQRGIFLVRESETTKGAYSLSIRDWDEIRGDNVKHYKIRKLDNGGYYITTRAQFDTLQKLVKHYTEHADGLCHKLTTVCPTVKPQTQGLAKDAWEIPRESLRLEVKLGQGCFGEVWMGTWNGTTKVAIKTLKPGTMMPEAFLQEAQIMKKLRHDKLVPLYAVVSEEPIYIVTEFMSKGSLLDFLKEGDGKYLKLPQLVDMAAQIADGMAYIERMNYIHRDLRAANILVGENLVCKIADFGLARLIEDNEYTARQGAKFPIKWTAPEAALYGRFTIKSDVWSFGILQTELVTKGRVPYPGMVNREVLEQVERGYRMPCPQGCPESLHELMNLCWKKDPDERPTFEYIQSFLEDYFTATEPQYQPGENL
Test [4] can be described thus: Selectivity interaction (Eurofins CEREP Diversity Profile (receptors and ion channels)) EUB0000279b NPY. The conditions noted are these: at 10 µM.
Test [5] addresses T1, Receptor-interacting serine/threonine-protein kinase 4 (Homo sapiens) (UniProt P57078).
T1 sequence (whole entry): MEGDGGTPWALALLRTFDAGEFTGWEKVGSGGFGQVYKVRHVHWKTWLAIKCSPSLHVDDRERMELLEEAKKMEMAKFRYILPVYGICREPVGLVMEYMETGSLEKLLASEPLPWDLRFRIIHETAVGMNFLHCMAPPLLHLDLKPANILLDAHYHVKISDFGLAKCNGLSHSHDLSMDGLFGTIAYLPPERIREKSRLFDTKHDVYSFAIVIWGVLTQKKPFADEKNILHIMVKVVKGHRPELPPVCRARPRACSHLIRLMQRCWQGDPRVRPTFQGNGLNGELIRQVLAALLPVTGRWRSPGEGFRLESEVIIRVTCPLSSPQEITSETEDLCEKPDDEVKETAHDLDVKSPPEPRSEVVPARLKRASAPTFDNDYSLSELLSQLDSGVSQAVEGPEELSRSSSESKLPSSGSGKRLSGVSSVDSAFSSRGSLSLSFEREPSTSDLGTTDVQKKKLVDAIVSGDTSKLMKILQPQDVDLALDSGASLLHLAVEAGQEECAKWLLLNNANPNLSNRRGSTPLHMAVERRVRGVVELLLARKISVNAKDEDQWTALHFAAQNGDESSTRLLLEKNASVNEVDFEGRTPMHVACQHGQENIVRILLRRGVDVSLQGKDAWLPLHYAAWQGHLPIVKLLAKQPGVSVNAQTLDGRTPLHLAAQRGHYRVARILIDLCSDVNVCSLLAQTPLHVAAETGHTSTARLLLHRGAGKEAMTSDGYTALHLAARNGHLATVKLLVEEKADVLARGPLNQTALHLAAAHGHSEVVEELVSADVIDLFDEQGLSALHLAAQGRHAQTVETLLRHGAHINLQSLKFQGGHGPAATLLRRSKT
Description: Selectivity interaction (KinomeScan (DiscoverX)) EUB0000607a RIPK4. The conditions noted are these: at 10 µM.

Test [6] deals with Phosphatidylinositol 4-phosphate 5-kinase type-1 gamma (Homo sapiens) (UniProt O60331). To be noted: at 10 µM.
The target of test [7] is Mitogen-activated protein kinase 10 (Homo sapiens, UniProt P53779). Description: Selectivity interaction (Kinase panel (DSF assay)) EUB0001559a MAPK10. (In general: In DSF a fluorescence change marks the thermal transition of the protein.)
Chain of Mitogen-activated protein kinase 10 (P53779 whole entry, canonical isoform): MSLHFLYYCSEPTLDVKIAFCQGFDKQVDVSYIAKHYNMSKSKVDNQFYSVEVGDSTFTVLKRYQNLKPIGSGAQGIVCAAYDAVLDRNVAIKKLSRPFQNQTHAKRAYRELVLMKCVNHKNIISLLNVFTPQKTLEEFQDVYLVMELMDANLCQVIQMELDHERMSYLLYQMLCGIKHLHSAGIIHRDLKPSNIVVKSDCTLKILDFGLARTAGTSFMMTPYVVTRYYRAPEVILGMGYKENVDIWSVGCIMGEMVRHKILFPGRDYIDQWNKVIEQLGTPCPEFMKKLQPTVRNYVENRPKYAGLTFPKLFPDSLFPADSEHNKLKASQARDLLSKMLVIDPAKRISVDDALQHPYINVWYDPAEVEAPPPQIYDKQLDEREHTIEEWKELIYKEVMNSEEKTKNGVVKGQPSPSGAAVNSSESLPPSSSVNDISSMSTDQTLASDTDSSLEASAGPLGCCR
The target of test [8] is Phosphatidylinositol 4,5-bisphosphate 3-kinase catalytic subunit gamma isoform (Homo sapiens) (UniProt P48736). Description: Selectivity interaction (ProQinase) EUB0000171b PIK3CG.
Chain of Phosphatidylinositol 4,5-bisphosphate 3-kinase catalytic subunit gamma isoform (Homo sapiens) (P48736 whole entry, looked up, canonical isoform): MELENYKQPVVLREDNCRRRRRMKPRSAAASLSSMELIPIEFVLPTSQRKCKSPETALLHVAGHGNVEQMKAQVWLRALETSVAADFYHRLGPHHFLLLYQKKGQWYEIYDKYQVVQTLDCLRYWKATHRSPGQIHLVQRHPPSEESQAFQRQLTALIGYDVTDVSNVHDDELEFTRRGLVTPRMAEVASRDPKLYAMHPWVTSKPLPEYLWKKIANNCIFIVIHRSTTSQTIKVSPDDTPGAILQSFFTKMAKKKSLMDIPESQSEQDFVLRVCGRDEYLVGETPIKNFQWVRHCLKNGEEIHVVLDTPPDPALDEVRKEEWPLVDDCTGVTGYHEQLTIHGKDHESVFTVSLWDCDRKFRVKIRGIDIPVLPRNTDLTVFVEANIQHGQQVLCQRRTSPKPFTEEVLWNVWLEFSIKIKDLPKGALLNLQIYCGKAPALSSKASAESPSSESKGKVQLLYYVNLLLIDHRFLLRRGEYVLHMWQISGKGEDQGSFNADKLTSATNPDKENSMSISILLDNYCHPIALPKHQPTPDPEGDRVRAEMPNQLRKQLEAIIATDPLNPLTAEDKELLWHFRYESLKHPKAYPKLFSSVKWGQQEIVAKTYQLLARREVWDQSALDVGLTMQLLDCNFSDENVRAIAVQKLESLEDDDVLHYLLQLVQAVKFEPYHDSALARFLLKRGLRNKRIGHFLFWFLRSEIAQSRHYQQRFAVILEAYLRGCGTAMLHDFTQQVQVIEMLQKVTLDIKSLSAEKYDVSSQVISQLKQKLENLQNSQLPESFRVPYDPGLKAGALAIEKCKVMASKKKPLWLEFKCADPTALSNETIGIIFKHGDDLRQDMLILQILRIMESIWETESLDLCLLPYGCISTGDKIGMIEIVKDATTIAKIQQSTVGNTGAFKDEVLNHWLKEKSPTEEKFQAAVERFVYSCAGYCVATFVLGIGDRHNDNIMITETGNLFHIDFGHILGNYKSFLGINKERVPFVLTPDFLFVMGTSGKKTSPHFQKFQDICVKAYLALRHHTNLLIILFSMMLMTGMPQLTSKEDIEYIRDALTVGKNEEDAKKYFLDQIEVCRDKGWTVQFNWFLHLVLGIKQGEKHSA
The target in test [9] is Mitogen-activated protein kinase 1 (Homo sapiens, UniProt P28482). Description: Selectivity interaction (Ambit KINOMEscan and KiNATiv profiling in Jurkat cells) EUB0000090b MAPK1. Format: cell-based. The conditions noted are these: at 1 µM.
Chain of Mitogen-activated protein kinase 1 (P28482 whole entry): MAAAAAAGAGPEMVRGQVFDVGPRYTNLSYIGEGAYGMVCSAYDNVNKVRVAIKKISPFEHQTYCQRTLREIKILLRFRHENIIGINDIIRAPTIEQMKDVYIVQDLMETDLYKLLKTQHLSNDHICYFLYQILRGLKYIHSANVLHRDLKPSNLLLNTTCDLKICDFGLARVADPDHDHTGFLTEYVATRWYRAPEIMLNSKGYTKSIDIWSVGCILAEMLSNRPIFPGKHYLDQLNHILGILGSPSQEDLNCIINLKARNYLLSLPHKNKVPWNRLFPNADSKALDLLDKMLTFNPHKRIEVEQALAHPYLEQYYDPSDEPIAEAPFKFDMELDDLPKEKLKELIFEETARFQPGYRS
The target of test [10] is T2, Testis-specific serine/threonine-protein kinase 1 (Homo sapiens) (UniProt Q9BXA7).
T2 sequence (whole entry): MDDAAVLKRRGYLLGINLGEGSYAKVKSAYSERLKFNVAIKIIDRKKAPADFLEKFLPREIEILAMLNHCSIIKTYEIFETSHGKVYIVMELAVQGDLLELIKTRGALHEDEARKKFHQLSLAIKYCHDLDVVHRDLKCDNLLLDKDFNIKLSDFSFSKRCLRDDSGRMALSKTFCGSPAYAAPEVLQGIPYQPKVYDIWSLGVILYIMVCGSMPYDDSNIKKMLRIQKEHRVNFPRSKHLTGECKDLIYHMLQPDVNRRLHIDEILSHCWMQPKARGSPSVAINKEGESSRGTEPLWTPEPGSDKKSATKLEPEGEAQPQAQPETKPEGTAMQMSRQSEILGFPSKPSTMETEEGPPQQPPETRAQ
In words: Selectivity interaction (Ambit KINOMEscan and KiNATiv profiling in Jurkat cells) EUB0000090b TSSK1B. Format: cell-based. To be noted: at 1 µM.

Test [11] can be described thus: Selectivity interaction (Androgen receptor agonist/antagonist FRET assay, rat recombinant ) EUB0000877a AR.
For test [12], the target named is Serine/threonine-protein kinase mTOR (Homo sapiens, UniProt P42345). Description: Selectivity interaction (Kinase panel (antibody-dependent TR-FRET assay, phosphorylation of 4EBP-1 catalyzed by recombinant mTOR)) EUB0000877a MTOR.
Test [13] has as its system Hepatocyte growth factor receptor (Homo sapiens), P08581 [M1250T]. Description: (§1) Selectivity interaction (KinomeScan (DiscoverX)) EUB0000655a MET. The conditions noted are these: at 10 µM.
Test [14] relates to Hepatocyte growth factor receptor (Homo sapiens), P08581 [Y1235D]. The description is as §1. To be noted: at 10 µM.
Test [15] addresses Hepatocyte growth factor receptor (Homo sapiens, UniProt P08581). The description is as §1. The conditions noted are these: at 10 µM.
Test [16] deals with Beta-1 adrenergic receptor (Homo sapiens, UniProt P08588). Description: Selectivity interaction (Panel of non-epigenetic targets (kinases, GPCRs, ion channels, and transporters, Eurofins) ) EUB0000271b ADRB1. To be noted: at 1 µM.
Chain of Beta-1 adrenergic receptor (P08588 whole entry, looked up, the tested form may be a part): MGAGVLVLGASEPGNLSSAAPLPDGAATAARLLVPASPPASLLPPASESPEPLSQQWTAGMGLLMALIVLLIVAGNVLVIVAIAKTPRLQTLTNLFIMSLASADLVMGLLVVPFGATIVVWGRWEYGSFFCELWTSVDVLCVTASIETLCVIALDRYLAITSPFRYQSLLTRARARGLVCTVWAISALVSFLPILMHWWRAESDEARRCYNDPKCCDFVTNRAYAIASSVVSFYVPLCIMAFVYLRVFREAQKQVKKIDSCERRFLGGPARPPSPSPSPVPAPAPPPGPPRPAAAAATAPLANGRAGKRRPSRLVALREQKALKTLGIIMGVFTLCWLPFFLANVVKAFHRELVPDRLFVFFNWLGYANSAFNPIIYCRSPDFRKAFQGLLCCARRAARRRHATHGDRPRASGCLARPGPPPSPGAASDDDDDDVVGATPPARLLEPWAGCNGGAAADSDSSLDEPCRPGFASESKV
The target in test [17] is Phosphatidylinositol 4-phosphate 3-kinase C2 domain-containing subunit beta (Homo sapiens) (UniProt O00750). In words: Selectivity interaction (KinomeScan (DiscoverX)) EUB0000229b PIK3C2B. To be noted: at 10 µM.
Chain of Phosphatidylinositol 4-phosphate 3-kinase C2 domain-containing subunit beta (Homo sapiens) (O00750 whole entry, the tested form may be a part): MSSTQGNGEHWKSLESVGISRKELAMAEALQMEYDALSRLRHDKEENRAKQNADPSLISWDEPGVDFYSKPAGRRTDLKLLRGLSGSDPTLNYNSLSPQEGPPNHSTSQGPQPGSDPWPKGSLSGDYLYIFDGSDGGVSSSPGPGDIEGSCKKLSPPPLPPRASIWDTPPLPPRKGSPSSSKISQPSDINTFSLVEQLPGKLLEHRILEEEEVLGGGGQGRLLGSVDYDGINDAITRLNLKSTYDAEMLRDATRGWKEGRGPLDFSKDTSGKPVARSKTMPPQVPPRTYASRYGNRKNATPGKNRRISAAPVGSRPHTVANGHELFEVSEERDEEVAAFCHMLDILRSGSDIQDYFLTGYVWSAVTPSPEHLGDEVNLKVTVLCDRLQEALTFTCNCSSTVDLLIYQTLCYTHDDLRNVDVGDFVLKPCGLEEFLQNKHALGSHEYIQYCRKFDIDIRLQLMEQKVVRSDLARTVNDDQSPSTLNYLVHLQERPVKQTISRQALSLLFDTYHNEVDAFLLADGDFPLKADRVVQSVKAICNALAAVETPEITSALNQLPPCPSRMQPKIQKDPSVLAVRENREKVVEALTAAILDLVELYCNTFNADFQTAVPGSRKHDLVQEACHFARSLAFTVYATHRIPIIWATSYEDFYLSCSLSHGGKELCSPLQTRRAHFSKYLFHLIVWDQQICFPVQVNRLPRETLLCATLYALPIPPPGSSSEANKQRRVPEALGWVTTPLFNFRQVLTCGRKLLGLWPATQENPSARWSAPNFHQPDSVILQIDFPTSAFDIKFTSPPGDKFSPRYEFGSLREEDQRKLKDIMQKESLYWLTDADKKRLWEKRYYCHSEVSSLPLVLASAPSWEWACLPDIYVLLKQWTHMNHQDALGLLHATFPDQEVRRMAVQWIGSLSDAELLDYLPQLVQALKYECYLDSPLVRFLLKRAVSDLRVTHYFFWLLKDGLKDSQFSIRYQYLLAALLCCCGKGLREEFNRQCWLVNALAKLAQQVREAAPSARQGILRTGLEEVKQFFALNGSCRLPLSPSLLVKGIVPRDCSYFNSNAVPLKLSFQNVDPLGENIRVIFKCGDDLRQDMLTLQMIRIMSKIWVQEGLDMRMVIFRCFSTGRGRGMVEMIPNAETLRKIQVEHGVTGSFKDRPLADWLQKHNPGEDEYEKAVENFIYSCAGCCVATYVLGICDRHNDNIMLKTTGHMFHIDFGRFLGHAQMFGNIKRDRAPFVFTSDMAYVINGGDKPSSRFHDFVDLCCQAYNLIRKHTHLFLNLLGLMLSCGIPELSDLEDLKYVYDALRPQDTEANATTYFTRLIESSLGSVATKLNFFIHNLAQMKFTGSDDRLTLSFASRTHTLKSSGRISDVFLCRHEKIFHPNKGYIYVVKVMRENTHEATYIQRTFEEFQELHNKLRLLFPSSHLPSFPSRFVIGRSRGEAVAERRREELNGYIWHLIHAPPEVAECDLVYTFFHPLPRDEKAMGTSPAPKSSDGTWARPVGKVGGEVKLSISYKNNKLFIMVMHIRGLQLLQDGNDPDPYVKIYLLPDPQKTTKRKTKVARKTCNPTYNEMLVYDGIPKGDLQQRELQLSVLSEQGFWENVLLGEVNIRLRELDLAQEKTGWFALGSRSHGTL

Chain of Dual specificity mitogen-activated protein kinase kinase 2 (Homo sapiens) (P36507 whole entry): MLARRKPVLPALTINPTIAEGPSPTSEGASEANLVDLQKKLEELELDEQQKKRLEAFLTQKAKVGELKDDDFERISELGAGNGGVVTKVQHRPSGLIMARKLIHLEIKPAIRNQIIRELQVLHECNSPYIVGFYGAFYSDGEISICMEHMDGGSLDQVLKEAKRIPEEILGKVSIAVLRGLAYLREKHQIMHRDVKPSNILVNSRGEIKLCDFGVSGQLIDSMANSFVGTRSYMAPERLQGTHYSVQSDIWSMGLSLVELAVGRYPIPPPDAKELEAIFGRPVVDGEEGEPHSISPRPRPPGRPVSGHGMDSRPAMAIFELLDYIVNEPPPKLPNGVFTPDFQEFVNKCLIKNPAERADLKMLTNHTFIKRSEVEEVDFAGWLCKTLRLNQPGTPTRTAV

Turning to `Cn1cc(-n2cnc3c(NCc4nc5cc(Cl)c(Cl)cc5[nH]4)nc(N4CCOCC4)nc32)cn1`, the % of inhibition in [1] was -1.07%. This compound also showed a % of control in test [2] of 5.25%.

As for `N#Cc1cccc(-c2c[nH]c3ncnc(N4CCOCC4)c23)c1`, the % of inhibition in test [3] was -9%.

In test [4], `CC(=O)c1cc(-c2ccccc2OCC2CC2)c2ncccn12` showed a % of control of 123%.

Turning to `CNC(=O)Nc1ccc(-c2nc(N3CC4CCC(C3)O4)c3cnn(C4CCC5(CC4)OCCO5)c3n2)cc1`, the % of control in test [5] worked out at 98%.

In turn, `Cc1cc([C@@H](C)Nc2ccccc2C(=O)O)c2nc(N3CCOCC3)cc(=O)n2c1` [AZD-6482] registered a % of control in test [6] of 63%.

As to `CN(C(=O)c1cnn2cccnc12)c1cc2c(cc1N1CCOCC1)C(=O)N(C[C@@H](F)C(C)(C)O)C2`, in test [7], the dTM was -0.8 K.

Take `C=CC(=O)Nc1cccc(C(=O)Nc2ccc(Nc3cc(-c4[nH]c(SC)nc4C)ccn3)cc2)c1`: the values for the % of control in [8] (at 1 µM) and in test [8] (at 5 µM) were 176% and 156%, respectively.

With `CN(C)C/C=C/C(=O)Nc1ccc(C(=O)N2CCCC(Nc3ncc(Cl)c(-c4c[nH]c5ccccc45)n3)C2)cc1` (stereo not drawn), the % of control in test [9] is 85%; in test [10], 83%.

By IC50 is commonly meant the concentration that inhibits the measured activity by half. In the case of `CCC(=O)N1CC[C@H](Nc2ncnc3c2CN(c2cnc(OC)c(C(F)(F)F)c2)CC3)C1` [LENIOLISIB], the IC50 in [11] was over 30 µM; in [12], over 9.1 µM.

Turning to `CN(C)CCOc1ccc(-c2nc(-c3ccncc3)c(-c3ccc4c(c3)CC/C4=N\O)[nH]2)cc1`, the values for the % of control in [13], in [14] and in test [15] were 64%, 64% and 50%, respectively.

For `Cc1cc(C)cc([C@@H]2c3cc(C)ccc3NC(=O)CN2C(=O)c2ccc(Br)s2)c1`, in [16], the % of inhibition is -13%.

`COc1cc(N(C)c2ccnc3ccc(C(F)(F)F)cc23)cc(OC)c1OC` yielded a % binding in test [17] of 100%.

Values taken from ChEMBL document CHEMBL5465560, “Selectivity Literature for EUbOPEN Chemogenomic Library” (2024).
